The record followed here is patent publication US20250051324A1, “PARP INHIBITOR, PHARMACEUTICAL COMPOSITION COMPRISING SAME, AND USE THEREOF” (KEYTHERA (SUZHOU) BIO-PHARMACEUTICALS CO., LIMITED, priority 2021, published 2025).

Series [1] is described as follows: Liver microsome metabolism assay. Conditions: CD1, mouse, liver microsomes.
Series [2] has as its system MDA-MB-436 breast cancer cells. Nature of the series: Cell proliferation assay, MDA-MB-436. The format is cell-based. Particulars: Homo sapiens, MDA-MB-436, 168 h; proliferation, 7 days; read-out: MDA-MB-436 Cell IC50. The procedure: Experimental Materials: MDA-MB-436 or UWB1.289 cell lines were purchased from Cobioer Biosciences Co. Ltd. (Nanjing, China). The STR identification results were a complete match, and mycoplasma testing was negative. MDA-MB-436 cells were cultured in DMEM complete medium containing 10% fetal bovine serum, 1% penicillin-streptomycin, 1% insulin, and 16 μg/mL glutathione; UWB1.289 cells were cultured in RMPI1640 complete medium containing 10% fetal bovine serum and 1% penicillin-streptomycin.
1. MDA-MB-436 or UWB1.289 cells were cultured in the aforementioned medium (culture conditions: 37° C., 5.0% CO2 in air) until they reached the logarithmic growth phase. The cells were then digested with trypsin containing 0.25% EDTA, centrifuged at 1000 rpm, and the supernatant was discarded. Cell culture medium was added, and the cell suspension was adjusted to 2×10^4/mL after counting. 135 μL of the cell suspension per well was taken and cultured in a 96-well cell culture plate for 16 hours (culture conditions: 37° C., 5.0% CO2 in air).
2. The test compounds, stored at a concentration of 10 mM, were diluted 2.5 times with DMSO and then serially diluted in a 1:3 gradient (9 gradients). The gradient-diluted samples were further diluted 40 times with serum-free medium, and 15 μL of each was added to the 96-well cell culture plate. The positive control group received serum-free medium containing the same concentration of DMSO, and the negative control group received medium without cells. The cells were then cultured for an additional 7 days.
3. After the culture period, the cell culture plate was placed at room temperature for 30 minutes. Then, 100 μL of CellCounting-Lite 2.0 reagent (Vazyme, #DD1101) was added to each well, mixed thoroughly, and incubated in the dark at room temperature for 10 minutes. The luminescence signal was read using a Synergy HTX multi-mode reader.
4. Data analysis was performed using GraphPad Prism 8.0 software. The inhibition rate (%) was calculated as 100*(average luminescence signal of the positive control group−luminescence signal of the compound)/(average luminescence signal of the positive control group−average luminescence signal of the negative control group). The IC50 value was obtained by plotting the logarithm of the compound concentration against the percentage inhibition rate.

Series [3] deals with T1, PARP1 (Homo sapiens (Human), UniProt P09874). The series can be described thus: PARP1 trapping assay. The format is biochemical. Conditions: read-out: Inhibitory Effect on PARP1 Trapping IC50. The protocol: [table] […] 1. A 4× enzyme reaction mixture, comprising PARP1, PARP2, and GST-Tb antibody, was prepared with the buffer and 4 μL of the enzyme reaction mixture was added to a 384-well plate. 2. A 4×PARP1 and PARP2 probe reaction mixture was prepared with the buffer and 4 μL of the probe reaction mixture was added to the 384-well plate. 3. A series of gradient-diluted compounds were prepared and 4 μL of the diluted compounds were added to the 384-well plate, and incubated at room temperature for 45 minutes. 4. After incubation, 4 μL of 4×NAD reaction mixture was added to the 384-well plate and incubated at room temperature for 10 minutes. 5. After incubation, the plate was read using a plate reader. 6. Data Analysis: The percentage inhibition rate was calculated as follows: Inhibition Rate (%)=(Reading of Compound Group−Reading of Blank Group)/(Reading of Vehicle Control Group−Reading of Blank Group).
T1 sequence (P09874 whole entry): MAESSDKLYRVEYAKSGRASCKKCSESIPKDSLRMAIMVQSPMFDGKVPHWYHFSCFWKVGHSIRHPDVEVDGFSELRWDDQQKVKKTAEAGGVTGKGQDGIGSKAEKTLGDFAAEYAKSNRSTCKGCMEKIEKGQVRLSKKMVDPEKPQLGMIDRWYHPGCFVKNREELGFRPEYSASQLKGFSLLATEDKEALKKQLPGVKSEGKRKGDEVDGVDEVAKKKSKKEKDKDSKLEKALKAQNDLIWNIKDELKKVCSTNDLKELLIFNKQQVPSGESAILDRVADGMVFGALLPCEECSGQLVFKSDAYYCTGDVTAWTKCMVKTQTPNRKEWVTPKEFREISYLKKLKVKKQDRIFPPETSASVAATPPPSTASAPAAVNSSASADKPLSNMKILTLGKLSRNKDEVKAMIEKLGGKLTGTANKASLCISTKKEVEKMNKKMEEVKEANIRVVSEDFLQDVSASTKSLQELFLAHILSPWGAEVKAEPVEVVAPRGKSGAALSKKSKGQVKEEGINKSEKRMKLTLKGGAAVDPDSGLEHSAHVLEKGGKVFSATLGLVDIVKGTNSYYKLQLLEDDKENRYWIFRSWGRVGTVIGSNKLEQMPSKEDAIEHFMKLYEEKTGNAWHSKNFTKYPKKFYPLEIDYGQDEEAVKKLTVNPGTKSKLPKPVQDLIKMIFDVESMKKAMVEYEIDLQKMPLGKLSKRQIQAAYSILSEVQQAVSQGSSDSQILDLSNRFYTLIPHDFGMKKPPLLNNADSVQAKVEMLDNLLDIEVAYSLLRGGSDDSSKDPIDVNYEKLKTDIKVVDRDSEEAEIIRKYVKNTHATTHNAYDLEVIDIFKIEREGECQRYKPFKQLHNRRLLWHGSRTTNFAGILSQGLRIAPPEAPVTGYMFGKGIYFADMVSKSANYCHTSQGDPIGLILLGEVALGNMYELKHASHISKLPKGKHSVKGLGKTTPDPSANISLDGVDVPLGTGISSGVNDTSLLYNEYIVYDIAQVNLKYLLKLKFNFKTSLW

Series [4] is described as follows: Evaluation of pharmacokinetics in rats. The format is in vivo. Conditions: male, SD, rat, plasma, 1 mg/kg, oral gavage (PO, 1 mpk). An excerpt:
Test Animals: 6-8 Week Old Male SD Rats
Food was restored two hours after dosing.

Series [5] can be described thus: Evaluation of pharmacokinetics in mice. Conditions: male, ICR (CD1), mouse, plasma, po, 10 mg/kg.
Description: Test Objective: The pharmacokinetics of the example compounds of the present application were tested in mice. By measuring the drug concentration in mouse plasma, the pharmacokinetic behavior of the compounds of the present invention was studied to evaluate their pharmacokinetic characteristics.
Test Animals: 6-8 Week Old Male ICR (CD1) Mice
Oral Gavage Drug Preparation: An appropriate amount of the test compound was first weighed and dissolved in DMSO (Macklin cas: 67-68-5) to prepare a 20 mg/mL solution. Then, 75 μL of this solution was added to 150 μL of Solutol (Sigma cas: 70142-34-6), followed by 1.275 mL of 20% Captisol (Selleck cas: 182410-00-0), resulting in a final drug concentration of 1 mg/mL.
Intravenous Injection Drug Preparation: An appropriate amount of the test compound was first weighed and dissolved in DMSO (Macklin cas: 67-68-5) to prepare a 30 mg/mL solution. Then, 15 μL of this solution was added to 150 μL of Solutol (Sigma cas: 70142-34-6), followed by 1.335 mL of 20% Captisol (Selleck cas: 182410-00-0), resulting in a final drug concentration of 0.3 mg/mL.
Procedures: The mice were fasted overnight with free access to water before the experiment. Food was restored two hours after dosing. Blood samples were collected at different time points after intravenous injection or oral gavage of the test compound in mice, and the compound concentration in plasma was measured. Approximately 50 μL of blood was collected from each animal using a capillary sampling tube via the orbital venous plexus, with heparin sodium as an anticoagulant. Blood samples were placed on ice, centrifuged at 3500 r/min for 10 minutes to separate the plasma, and 20 μL of the collected plasma was added to 200 μL of acetonitrile (Merck cas: 75-05-8) containing 200 nM dexamethasone (Selleck cas: 50-02-2) as an internal standard. The mixture was centrifuged at 8000 r/min for 20 minutes. After centrifugation, 150 μL of the supernatant was transferred to a new centrifuge tube, and 150 μL of 0.1% formic acid (Fisher cas: 207868) was added. The mixture was mixed well, and 5 μL of the sample was subjected to quantitative analysis by liquid chromatography-mass spectrometry (Q-TOF LC/MS).
The test compound was serially diluted with DMSO to cover the compound concentrations expected in plasma samples to be tested, with a blank sample (containing only DMSO) included.
2 μL of each diluted sample at various concentrations was added to 18 μL of normal ICR mouse plasma, mixed, and then added to 200 μL of acetonitrile (Merck cas: 75-05-8) containing 200 nM dexamethasone (Selleck cas: 50-02-2) as an internal standard. The mixture was centrifuged for 20 minutes (8000 r/min). 150 μL of the supernatant was transferred to a new centrifuge tube, and 150 μL of 0.1% formic acid (Fisher cas: 207868) was added. The mixture was mixed well, and 5 μL of the sample was subjected to quantitative analysis by liquid chromatography-mass spectrometry (Q-TOF LC/MS).
The final standard curve was plotted using the concentration of the test compound after dilution on the abscissa and the ratio of the signal of the compound to the internal standard (dexamethasone) on the ordinate. The standard curve was generated using linear regression with GraphPad Prism 8 software (R2>0.9900).
Data Analysis: calculation of pharmacokinetic parameters: the concentration of the test compound in plasma at different time points after intravenous injection or oral gavage in ICR mice was determined based on the above standard curve, and pharmacokinetic parameters (T1/2, Cmax, AUC, etc.) were calculated using the Phoenix WinNonlin 8.1 non-compartmental analysis model.
In series [6] the target is T1, PARP1. The series can be described thus: PARP enzyme activity assay (PARP1 chemiluminescent assay kit). The format is biochemical. Conditions: enzyme inhibitory activity, read-out: PARP-1 IC50. An excerpt:
Experimental Materials: The PARP1 assay kit was purchased from BPS Bioscience, USA, specifically the 384-well chemiluminescent assay kit (Catalog No.: #80551).
Experimental Principle: PARP can catalyze the transfer of ADP-ribose residues from NAD+ to target substrates, thereby modifying proteins through ribosylation. This experiment measures PARP1 enzyme activity by detecting the poly(ADP-ribosylation) of histones by PARP1.
Preparation of Reagents and Test Compounds: The 10× assay buffer included in the kit was diluted to 1× with distilled water. The test compound (stock concentration of 10 mM) was diluted to 10 μM with a DMSO solution and then serially diluted in a 1:3 ratio. The serially diluted compounds were further diluted 10-fold with the 1× assay buffer.
Experimental Method: The procedure was carried out according to the kit's instructions:
1. The 5× histone mixture was diluted to 1× with PBS, and 25 μL was added to each well of a 384-well plate, incubating overnight at 4° C.
2. After incubation, 100 μL of PBST (0.05% Tween 20) was added to each well for washing, repeated three times. Then, 100 μL of blocking solution was added to each well and incubated at room temperature for 90 minutes.
3. After incubation, the wells were washed three times with PBST, and then 1.25 μL of 10× assay buffer, 1.25 μL of 10×PARP assay mixture, 2.5 μL of activation DNA (5×), and 7.5 μL of distilled water were added to each well.
4. […] The positive control group and the negative control group were added with 1× assay buffer containing the same concentration of DMSO.
5. Next, 10 μL of 2.5 ng/μL PARP1 enzyme was added to the test compound and positive control groups, while 10 μL of 1× assay buffer was added to the negative control group, and the mixture was incubated at room temperature for 60 minutes.
6. Streptavidin-HRP was diluted 1:50 with the blocking solution. After incubation, the plate was washed three times with PBST, and 25 μL of the diluted streptavidin-HRP solution was added to each well, incubating at room temperature for 30 minutes.
7. After incubation, the plate was washed three times with PBST, and 50 μL of the mixed substrate A and substrate B in equal volumes was added. The luminescence signal was immediately read on a Synergy HTX multi-mode reader.
8. Data analysis was performed using GraphPad Prism 8.0 software. The inhibition rate %=100*(average luminescence signal of the positive control group−luminescence signal of the compound)/(average luminescence signal of the positive control group−average luminescence signal of the negative control group). The IC50 value was obtained by plotting the logarithm of the compound concentration against the percentage inhibition rate.

The term microsomal CLint denotes the rate of metabolic loss divided by the concentration. Low values mean slow turnover, high ones rapid turnover. As usually defined, the IC50 is the concentration that gives 50% inhibition. In series [1], `CNC(=O)c1ccc(N2CCN(Cc3cnc4c(C)c(C(F)(F)F)c(=O)[nH]c4c3)CC2C#N)cn1` (stereo not drawn) [Compound 72, 5-(2-cyano-4-((8-methyl-6-oxo-7-(trifluoromethyl)-5,6-dihydro-1,5-naphthyridin-3-yl)methyl)piperazin-1-yl)-N-methylpicolinamide] returned a microsomal CLint at 1 µM of 0.6 µL/min/mg. In addition, the IC50 in series [2] came out at 8.18 nM.

Consider `CNC(=O)c1ccc(N2CCN(Cc3cc4[nH]c(=O)c(C(F)(F)F)c(C)c4cn3)[C@H](C)C2)cn1` [Compound 87, (R)—N-methyl-5-(3-methyl-4-((4-methyl-2-oxo-3-(trifluoromethyl)-1,2-dihydro-1,6-naphthyridin-7-yl)methyl)piperazin-1-yl)picolinamide], for which the microsomal CLint at 1 µM in series [1] came out at 1.01 µL/min/mg. The IC50 on PARP1 [3] is 2.57 nM; in series [2] it was 5.73 nM.

In turn, `CNC(=O)c1ccc(N2CCN(Cc3cnc4c(C)c(C#N)c(=O)[nH]c4c3)CC2)cn1` [Compound 85, 5-(4-((7-cyano-8-methyl-6-oxo-5,6-dihydro-1,5-naphthyridin-3-yl)methyl)piperazin-1-yl)-N-methylpicolinamide] registered a microsomal CLint at 1 µM in series [1] of 0.86 µL/min/mg. The IC50 in series [2] came to 16.4 nM.

In the case of `CNC(=O)c1ccc(N2CCN([C@@H](C)c3cnc4c(C)c(C(F)(F)F)c(=O)[nH]c4c3)CC2)cn1` [Compound 91, (S)—N-methyl-5-(4-(1-(8-methyl-6-oxo-7-(trifluoromethyl)-5,6-dihydro-1,5-naphthyridin-3-yl)ethyl)piperazin-1-yl)picolinamide], the microsomal CLint at 1 µM in series [1] stood at 0.3 µL/min/mg. Also, the IC50 on PARP1 [3] was determined as 2.9 nM; in series [2], 3.24 nM.

In general, AUC(0-inf) refers to the area under the concentration-time curve extrapolated to infinity. By Cmax is commonly meant the maximum level reached in the sampled fluid or tissue. By half-life is commonly meant the time needed for the level to fall by half in the phase considered. Read a high half-life as slow decline. For the compound `CCc1cc2ncc(CN3CCN(c4ccc(C(=O)NC)nc4)CC3)cc2[nH]c1=O` [AZD5305, reference compound], in series [4], the AUC(0-inf) was 5.6 µg·h/mL, the peak concentration (Cmax) stood at 1400 ng/mL and the half-life is 4.09 h. In series [1], this compound showed a microsomal CLint at 1 µM of 1.23 µL/min/mg. In series [5], this compound gave an AUC(0-inf) of 357 µg·h/mL, a Cmax of 37300 ng/mL and a half-life of 8.25 h.

In series [1], `CNC(=O)c1ccc(N2CCN([C@H](C)c3cnc4c(C)c(C(F)(F)F)c(=O)[nH]c4c3)CC2)cn1` [Compound 90, (R)—N-methyl-5-(4-(1-(8-methyl-6-oxo-7-(trifluoromethyl)-5,6-dihydro-1,5-naphthyridin-3-yl)ethyl)piperazin-1-yl)picolinamide] showed a microsomal CLint at 1 µM of 0.21 µL/min/mg. Further, on PARP1 [3], the IC50 was 4.33 nM. Besides, in series [2], the IC50 worked out at 7.26 nM. In series [5], this compound gave an AUC(0-inf) of 1360 µg·h/mL, a Cmax of 49900 ng/mL and a half-life of 20.2 h.

On to `CNC(=O)c1ccc(N2CCN(Cc3cc4[nH]c(=O)c(C(F)(F)F)c(C)c4cn3)C[C@H]2C)cn1` [Compound 88, (R)—N-methyl-5-(2-methyl-4-((4-methyl-2-oxo-3-(trifluoromethyl)-1,2-dihydro-1,6-naphthyridin-7-yl)methyl)piperazin-1-yl)picolinamide], for which the microsomal CLint at 1 µM in series [1] was 0.84 µL/min/mg. Besides, the IC50 on PARP1 [3] stood at 1.55 nM. Besides, the concentration for half-maximal inhibition (IC50) in series [2] was determined as 5.75 nM. In series [5], this compound showed an AUC(0-inf) of 1650 µg·h/mL, a Cmax of 38200 ng/mL and a half-life of 26.3 h.

Take `Cc1c(C(F)(F)F)c(=O)[nH]c2cc(CN3CCN(c4cc5c(cn4)C(=O)NC5)CC3)cnc12` [Compound 15, 4-methyl-7-((4-(3-oxo-2,3-dihydro-1H-pyrrolo[3,4-c]pyridin-6-yl)piperazin-1-yl)methyl)-3-(trifluoromethyl)-1,5-naphthyridin-2(1H)-one]: the IC50 on PARP1 [6] turned out to be 3.48 nM. In series [1], this compound came in with a microsomal CLint at 1 µM of 0.75 µL/min/mg.

Compound `CNC(=O)c1ccc(N2CCN(C(C)c3cnc4c(C)c(C(F)(F)F)c(=O)[nH]c4c3)CC2)cn1` (stereo not drawn) [Compound 24, N-methyl-5-(4-(1-(8-methyl-6-oxo-7-(trifluoromethyl)-5,6-dihydro-1,5-naphthyridin-3-yl)ethyl)piperazin-1-yl)picolinamide] had a microsomal CLint at 1 µM in series [1] of 0.4 µL/min/mg. For the same compound, in series [2], the IC50 stood at 4.32 nM. In series [5], this compound had an AUC(0-inf) of 1100 µg·h/mL, a Cmax of 26300 ng/mL and a half-life of 28.7 h.
